Measured values: patent US3989746A, “Substituted naphthyl anthranilic acids” (Ikeda Mohando Co., Ltd., priority 1972, dated 1976)

Assays:
[1] = tested on: Ultraviolet erythema; experiment: Ultraviolet erythema; assay type: in vivo, guinea pigs (male, Hartley type); conditions: 10 mg/Kg oral, 1 h before irradiation, read 3 h after irradiation; for inhibition in vivo at 10 mg/kg: Cavia porcellus, light or radiation study, read-out: Anti-Inflammatory Effect Control Ratio, Ultraviolet Erythema
Method: The test was conducted according to a modification of the method of C. […] Groups of guinea pigs (male guinea pigs of the Hartley type having a body weight of 300 to 450 g), each group consisting of 5 to 10 guinea pigs, were employed for the test. Hairs were removed from backs of the guinea pigs by an electric hair-clipper and a depilatory agent. The guinea pigs were caused to abstain from food for 18 to 19 hours, and a test compound was orally administered in an amount of 10 mg/Kg in the form suspended in a 4% gum arabic liquor. In the case of control groups, only a 4% gum arabic liquor was administered. An adhesive plaster according to the Japanese pharmacopoeia, on which three small holes having a diameter of 5 mm were opened, was applied to the hair-removed portion of the back. […] When 3 hours had passed from the irradiation, the degree of the formation of erythema was determined. One point was given to the guinea pig on which a definite round erythema was formed, a point of 0.5 was given to the guinea pig on which formation of erythema was observed but its contour was not definite, and a point of 0 was given to the guinea pig on which no erythema was formed. Total points were calculated in both the test compound-administered group and the control group, and the control ratio was calculated from these total points. [formula]

[2] = tested on: Adjuvant arthritis; experiment: Adjuvant arthritis; assay type: in vivo, rats (female, Wister type); conditions: 9 mg/Kg per day oral for 25 days, foot volume on 23rd day from adjuvant injection; for inhibition in vivo at 9 mg/kg: Rattus norvegicus, 552 h, read-out: Anti-Inflammatory Effect Control Ratio, Adjuvant Arthritis
Method: With respect to the foregoing compounds, anti-inflammatory effects against carragheenin foot edema, ultraviolet erythema and adjuvant arthritis were tested by using rate according to the following methods to obtain results shown below.
The test was conducted according to a modification of the method of B. B. Newbould (Brit. J. Pharmacol., 21, 127 (1963)). Groups of female rats of the Wister type having a body weight of 180 - 240 g, each group consisting of 4 to 8 rats, were tested. 0.05 ml of an adjuvant (formed by suspending 5 mg of dead tuberculous bacillus, Aoyama B strain, in 1 ml of fluid paraffin according to the Japanese pharmacopoeia) was hypodermically injected in the right foot heel of each rat. A test compound was orally administered in a dosage of 9 mg/Kg per day in the form suspended in a 5% gum arabic liquor continuously for 25 days from one day before the injection of the adjuvant. In the case of the control group, only a 5% gum arabic liquor was continuously administered in the same manner. The volume of the right foot was measured 1 day before the injection of the adjuvant and on the 23rd day from the injection of the adjuvant with respect to each group. Thus, the increase of the foot volume was calculated in either the test compound-administered group or the control group, and the ratio of control of the adjuvant arthritis was calculated according to the following formula: [formula] in which C is the increase of the volume of the right foot in the control group and D indicates the increase of the volume of the right foot in the test compound-administered rat group.

[3] = tested on: male mice; experiment: in vivo; conditions: 7 days
Method: (§1) With respect to the foregoing test compounds, the acute toxicity was examined by employing mice according to the following method.
(§2) Groups of male mice of the dd type having a body weight of 18 to 22 g, each, group consisting of 5 mice, were tested to determine the acute toxicity. The test compound was orally administered in a dosage indicated in Table 3a in the form suspended in 5% gum arabic liquor. The determination was conducted 7 days after the administration. Further, the LD50 values were calculated according to the method of Lichfield-Wilcoxon.

[4] = tested on: inflammatory pain; experiment: Analgesic effect on inflammatory pain (modified Randall and Selitto); assay type: in vivo, rats (male, Wister type); conditions: 100 mg/Kg oral, 1 hour before carragheenin; pain measured 3 hours after injection
Method: Groups of male rats of the Wister type having a body weight of about 150 g were tested, each group consisting of 5 rats. The rats were caused to abstain from food overnight, and 0.05 ml of a 1% carragheenin solution was hypodermically injected into the right hind leg of each rat. […] The test compound was orally administered in a dosage of 100 mg/Kg 1 hour before the injection of carragheenin. [formula]

[5] = tested on: Carragheenin foot edema; experiment: Carragheenin foot edema; assay type: in vivo, rats (male, Wister type); conditions: 100 mg/Kg oral, 1 h before carragheenin, foot volume 3 h after injection; for inhibition in vivo at 100 mg/kg: Rattus norvegicus, read-out: Anti-Inflammatory Effect Control Ratio, Carragheenin Foot Edema
Method: a. Carragheenin food edema
The test was conducted according to the method of C. […] Groups of rats (male rats of the Wister type having a body weight of 140-170 g), each group consisting of 5 to 11 rats, were caused to abstain from food for 16 hours, and a 4% gum arabic suspension of a test compound was orally administered to the rats in an amount of 100 mg/Kg. of the test compounds. Immediately, rats were allowed to drink 5 ml of purified water. […] After 3 hours had passed from the injection, the volume of the right foot was measured again to determine the increase of the volume of the right foot. In control groups, only a 4% gum arabic liquor free of a test compound was orally administered, and subsequent procedures were conducted similarly to determine the increase of the volume of the right foot. The carragheenin foot edema control ratio was calculated according to the following formula: [formula] wherein C indicates the foot volume increase in the control group and D indicates the foot volume increase in the test compound-administered group.

[6] = in vivo; conditions: mouse, in vivo, po
Method: as §1, §2

[7] = in vivo; conditions: rat, po

O=C(O)c1ccccc1Nc1cc(F)cc2ccccc12 [Compound 7, N-(3-fluoro-1-naphthyl)anthranilic acid]
inhibition in vivo at 10 mg/kg [1]: 44%
inhibition in vivo at 9 mg/kg [2]: 36.1%
Number of Dead Mice/Number of Mice Tested ([3]; 2 g/kg oral): 1 / 5
Number of Dead Mice/Number of Mice Tested ([3]; 3 g/kg oral): 5 / 5
Analgesic Coefficient [4]: 1.70
inhibition in vivo at 100 mg/kg [5]: 35.4%

Cc1cc(Nc2ccccc2C(=O)O)c2ccccc2c1C [Compound 6, N-(3,4-dimethyl-1-naphthyl)anthranilic acid]
inhibition in vivo at 10 mg/kg [1]: 17.1%
inhibition in vivo at 9 mg/kg [2]: 17.2%
Number of Dead Mice/Number of Mice Tested ([3]; 1 g/kg oral): 0 / 5
Number of Dead Mice/Number of Mice Tested ([3]; 2 g/kg oral): 2 / 5
Number of Dead Mice/Number of Mice Tested ([3]; 3 g/kg oral): 5 / 5
Number of Dead Mice/Number of Mice Tested ([3]; 4 g/kg oral): 5 / 5
Analgesic Coefficient [4]: 1.28
inhibition in vivo at 100 mg/kg [5]: 47.1%

O=C(O)c1ccccc1Nc1cc(Cl)cc2ccccc12 [Compound 5, N-(3-chloro-1-naphthyl)anthranilic acid]
inhibition in vivo at 10 mg/kg [1]: 40%
inhibition in vivo at 9 mg/kg [2]: 41.4%
Number of Dead Mice/Number of Mice Tested ([3]; 1 g/kg oral): 0 / 5
Number of Dead Mice/Number of Mice Tested ([3]; 2 g/kg oral): 0 / 5
Number of Dead Mice/Number of Mice Tested ([3]; 3 g/kg oral): 4 / 5
Number of Dead Mice/Number of Mice Tested ([3]; 4 g/kg oral): 5 / 5
Analgesic Coefficient [4]: 1.31
inhibition in vivo at 100 mg/kg [5]: 31.4%

Cc1cccc(Nc2ccccc2C(=O)O)c1C [Compound M, mefenamic acid, reference compound]
inhibition in vivo at 10 mg/kg [1]: 38.1%
inhibition in vivo at 9 mg/kg [2]: 48.1%
Number of Dead Mice/Number of Mice Tested ([3]; 1 g/kg oral): 5 / 5
Number of Dead Mice/Number of Mice Tested ([3]; 2 g/kg oral): 5 / 5
Analgesic Coefficient [4]: 1.50
inhibition in vivo at 100 mg/kg [5]: 50.6%

Cc1cc(Nc2ccccc2C(=O)O)c2ccccc2c1 [Compound 9, N-(3-methyl-1-naphthyl)anthranilic acid]
inhibition in vivo at 10 mg/kg [1]: 46.3%
Number of Dead Mice/Number of Mice Tested ([3]; 1 g/kg oral): 0 / 5
Number of Dead Mice/Number of Mice Tested ([3]; 2 g/kg oral): 3 / 5
Number of Dead Mice/Number of Mice Tested ([3]; 3 g/kg oral): 5 / 5
inhibition in vivo at 100 mg/kg [5]: 44.3%

O=C(O)c1ccccc1Nc1cccc(C(F)(F)F)c1 [Compound F, flufenamic acid, reference compound]
inhibition in vivo at 10 mg/kg [1]: 60%
inhibition in vivo at 9 mg/kg [2]: 72.4%
Number of Dead Mice/Number of Mice Tested ([3]; 1 g/kg oral): 5 / 5
Number of Dead Mice/Number of Mice Tested ([3]; 2 g/kg oral): 5 / 5
LD50 at 168 h [6]: 545 mg/kg
Analgesic Coefficient [4]: 1.42
LD50 [7]: 270 mg/kg
inhibition in vivo at 100 mg/kg [5]: 60.7%

CCCCc1ccc2ccccc2c1Nc1ccccc1C(=O)O [N-(2-butyl-naphthyl-1-anthranilic acid]
inhibition in vivo at 10 mg/kg [1]: 50.3%
inhibition in vivo at 9 mg/kg [2]: 26.2%
Number of Dead Mice/Number of Mice Tested ([3]; 1 g/kg oral): 0 /10
Number of Dead Mice/Number of Mice Tested ([3]; 2 g/kg oral): 0 /10
Number of Dead Mice/Number of Mice Tested ([3]; 3 g/kg oral): 0 /10
Analgesic Coefficient [4]: 1.38
inhibition in vivo at 100 mg/kg [5]: 31%

O=C(O)c1ccccc1Nc1c(Cl)ccc2ccccc12 [Compound 3, N-(2-chloro-1-naphthyl)anthranilic acid]
inhibition in vivo at 10 mg/kg [1]: 66.7%
inhibition in vivo at 9 mg/kg [2]: 36.9%
Number of Dead Mice/Number of Mice Tested ([3]; 1 g/kg oral): 0 / 5
Number of Dead Mice/Number of Mice Tested ([3]; 2 g/kg oral): 2 / 5
Number of Dead Mice/Number of Mice Tested ([3]; 3 g/kg oral): 4 / 5
Number of Dead Mice/Number of Mice Tested ([3]; 4 g/kg oral): 5 / 5
Analgesic Coefficient [4]: 1.62
inhibition in vivo at 100 mg/kg [5]: 46.6%

CCc1ccc(Nc2ccccc2C(=O)O)c2ccccc12 [4 Ethyl-]
Anti-Inflammatory Effect Control Ratio, Ultraviolet Erythema [1]: 60.0%
Anti-Inflammatory Effect Control Ratio, Adjuvant Arthritis [2]: 21.5%
Number of Dead Mice/Number of Mice Tested ([3]; 1 g/kg oral): 0 /10
Number of Dead Mice/Number of Mice Tested ([3]; 2 g/kg oral): 2 /10
Number of Dead Mice/Number of Mice Tested ([3]; 3 g/kg oral): 4 /10
Analgesic Coefficient [4]: 1.20
Anti-Inflammatory Effect Control Ratio, Carragheenin Foot Edema [5]: 46.2%

CCCCCCc1ccc2ccccc2c1Nc1ccccc1C(=O)O [2 Hexyl-, N-(2-n-hexyl-naphthyl-1)anthranilic acid]
inhibition in vivo at 10 mg/kg [1]: 44%
Number of Dead Mice/Number of Mice Tested ([3]; 1 g/kg oral): 0 /10
Number of Dead Mice/Number of Mice Tested ([3]; 2 g/kg oral): 0 /10
Number of Dead Mice/Number of Mice Tested ([3]; 3 g/kg oral): 0 /10
Analgesic Coefficient [4]: 1.28
inhibition in vivo at 100 mg/kg [5]: 8.5%

O=C(O)c1ccccc1Nc1c(F)ccc2ccccc12 [Compound 4, N-(2-fluoro-1-naphthyl)anthranilic acid]
inhibition in vivo at 10 mg/kg [1]: 48.7%
inhibition in vivo at 9 mg/kg [2]: 50%
Number of Dead Mice/Number of Mice Tested ([3]; 1 g/kg oral): 0 / 5
Number of Dead Mice/Number of Mice Tested ([3]; 2 g/kg oral): 0 / 5
Number of Dead Mice/Number of Mice Tested ([3]; 3 g/kg oral): 5 / 5
Number of Dead Mice/Number of Mice Tested ([3]; 4 g/kg oral): 5 / 5
Analgesic Coefficient [4]: 1.60
inhibition in vivo at 100 mg/kg [5]: 27.6%

O=C(O)c1ccccc1Nc1ccc(Cl)c2ccccc12 [Compound 1, n-(4-chloro-1-naphthyl)anthranilic acid]
inhibition in vivo at 10 mg/kg [1]: 38%
inhibition in vivo at 9 mg/kg [2]: 7.5%
Number of Dead Mice/Number of Mice Tested ([3]; 1 g/kg oral): 0 / 5
Number of Dead Mice/Number of Mice Tested ([3]; 2 g/kg oral): 0 / 5
Number of Dead Mice/Number of Mice Tested ([3]; 3 g/kg oral): 0 / 5
Number of Dead Mice/Number of Mice Tested ([3]; 4 g/kg oral): 3 / 5
LD50 at 168 h [6]: > 12000 mg/kg
Analgesic Coefficient [4]: 1.36
LD50 [7]: > 10000 mg/kg
inhibition in vivo at 100 mg/kg [5]: 25.7%

CCCCc1ccc(Nc2ccccc2C(=O)O)c2ccccc12 [4 Butyl-]
Anti-Inflammatory Effect Control Ratio, Ultraviolet Erythema [1]: 22.3%
Anti-Inflammatory Effect Control Ratio, Adjuvant Arthritis [2]: 1.3%
Number of Dead Mice/Number of Mice Tested ([3]; 1 g/kg oral): 0 /10
Number of Dead Mice/Number of Mice Tested ([3]; 2 g/kg oral): 0 /10
Number of Dead Mice/Number of Mice Tested ([3]; 3 g/kg oral): 5 /10
Analgesic Coefficient [4]: 1.41
Anti-Inflammatory Effect Control Ratio, Carragheenin Foot Edema [5]: 16.8%

CC(C)Cc1ccc(Nc2ccccc2C(=O)O)c2ccccc12 [4 iso Butyl-, N-(4-isobutyl-naphthyl-1)anthranilic acid]
Anti-Inflammatory Effect Control Ratio, Ultraviolet Erythema [1]: 43.8%
Anti-Inflammatory Effect Control Ratio, Adjuvant Arthritis [2]: 31.0%
Number of Dead Mice/Number of Mice Tested ([3]; 1 g/kg oral): 0 /10
Number of Dead Mice/Number of Mice Tested ([3]; 2 g/kg oral): 0 /10
Number of Dead Mice/Number of Mice Tested ([3]; 3 g/kg oral): 2 /10
Analgesic Coefficient [4]: 1.37
Anti-Inflammatory Effect Control Ratio, Carragheenin Foot Edema [5]: 41.9%

O=C(O)c1ccccc1Nc1c(Cl)cc(Br)c2ccccc12 [Compound 8, N-(2-chloro-4-bromo-1-naphthyl)anthranilic acid]
inhibition in vivo at 10 mg/kg [1]: 77.3%
inhibition in vivo at 9 mg/kg [2]: 31.2%
Number of Dead Mice/Number of Mice Tested ([3]; 1 g/kg oral): 0 / 5
Number of Dead Mice/Number of Mice Tested ([3]; 2 g/kg oral): 0 / 5
Number of Dead Mice/Number of Mice Tested ([3]; 3 g/kg oral): 0 / 5
Number of Dead Mice/Number of Mice Tested ([3]; 4 g/kg oral): 4 / 5
Analgesic Coefficient [4]: 1.72
inhibition in vivo at 100 mg/kg [5]: 27.6%
